Measurements as given in patent publication US7368461B2 (AstraZeneca AB, priority 2001, dated 2008).
Where “and” joins values, the source holds several entries; their conditions need not be identical. Equal values may be shown once.

How the values were obtained:
[1] = biological target: T1, human NK2 receptors (Homo sapiens, UniProt P21452); assay: Receptor binding assay with [3H]NKA in membranes of MEL cells expressing cloned human NK2 receptors; details: cloned hNK2 in MEL cell membranes; for Ki: read-out: hNK2 (Ki expressed as -Log Molar) (converted)
T1 construct: expressed in transfected cells; host or cells: MEL cells (murine erythroleukemia), membranes
T1 sequence (P21452 1-398): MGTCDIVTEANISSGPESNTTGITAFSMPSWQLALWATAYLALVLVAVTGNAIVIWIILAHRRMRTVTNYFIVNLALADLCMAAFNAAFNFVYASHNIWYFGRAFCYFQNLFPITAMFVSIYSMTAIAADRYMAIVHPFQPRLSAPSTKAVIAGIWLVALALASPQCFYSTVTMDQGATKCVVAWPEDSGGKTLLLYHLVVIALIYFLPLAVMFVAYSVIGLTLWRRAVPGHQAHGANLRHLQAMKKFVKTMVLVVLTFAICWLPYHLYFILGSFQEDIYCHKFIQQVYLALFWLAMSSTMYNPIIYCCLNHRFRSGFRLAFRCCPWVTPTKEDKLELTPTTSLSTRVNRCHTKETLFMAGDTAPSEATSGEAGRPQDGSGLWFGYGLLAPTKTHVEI
Experimental: (§1) Preparation of Membranes from MEL Cells Transfected with Cloned Human NK1 or NK2 receptors:
(§2) The cloning of the human lung NK1 and NK2 receptors was achieved as described by Hopkins, et al., Biochem. Biophys. Res. Commun. 180: 1110-1117 (1991), and Graham, et al., Biochem. Biophys. Res. Commun. 177: 8-16 (1991). Heterologous expression and scale-up growth of MEL cells transfected with human tachykinin receptors was performed as described for NK2 receptors by Aharony, et al., Mol. Pharmacol. 45: 9-19, 1994.
(§3) Membranes from recombinant MEL cells expressing NK1 or NK2 receptors were prepared as described by Hopkins, et al., (1991). Briefly, cells were homogenized at 4° C. (Brinkman PT-20 Polytron, setting 3, with one 15 sec burst on ice), in a buffer consisting of 50 mM Tris-HCl (pH7.4), 5 mM KCl, 120 mM NaCl, 10 mM EDTA and containing several protease inhibitors (1 mM phenylmethylsulfonylfluoride; 0.1 mg/ml soybean trypsin inhibitor, and 1 mM iodoacetamide). The homogenate was centrifuged at 1200×g for 45 min at 4° C. to remove cell debris. The supernatant was centrifuged at 48,000×g for 45 min at 4° C. The pellet was resuspended with a glass-Teflon motorized homogenizer in 30 volumes of ice-cold 50 mM Tris-HCl (pH 7.4) buffer.
(§4) Ligand binding assays with [^3H]NKA in MEL cells expressing cloned NK2 receptors or [^3H]SP in MEL cells expressing cloned NK1 receptors, were conducted generally as described by Aharony, et al., Mol. Pharmacol. 45: 9-19, 1994, Aharony, et al., Neuropeptides 23: 121-130 (1992) and Aharony, et al., J. Pharmacol. Exp. Ther. 259: 146-155(1991). In brief, incubations were carried out in assay buffer containing membranes, test compounds, and [^3H] ligand (1.0-1.5 nM). In competition experiments, mixtures (0.315 mL) containing various concentrations of competing agents (agonists, antagonists, or vehicle), were incubated at 25° C. for 30 min., with or without 1 μM unlabeled homogenous ligand (NKA or SP), to define non-specific binding. Reactions were initiated by adding membranes (0.1-0.15 mg protein/final concentration) and were conducted in duplicate. Saturation and kinetic experiments were conducted in triplicate. Separation of receptor-bound and free ligand was accomplished by dilution with 1 mL of wash buffer (20 mM Tris-HCl, pH 7.5) followed immediately by vacuum filtration with a total volume of 10 mL of wash buffer (utilizing a Brandel Cell Harvester MB-48R with Whatman GF/B filters presoaked in 0.1% polyethylenimine).
(§5) The ability of compounds disclosed herein to inhibit the binding of [^3H] ligand is shown by the results disclosed in Table 1.

[2] = biological target: T2, human NK1 receptors (Homo sapiens, UniProt P25103); assay: Receptor binding assay with [3H]SP in membranes of MEL cells expressing cloned human NK1 receptors; details: cloned hNK1 in MEL cell membranes; for Ki: read-out: hNK1 (Ki expressed as -Log Molar) (converted)
T2 construct: expressed in transfected cells; host or cells: MEL cells (murine erythroleukemia), membranes
T2 sequence (P25103 whole entry): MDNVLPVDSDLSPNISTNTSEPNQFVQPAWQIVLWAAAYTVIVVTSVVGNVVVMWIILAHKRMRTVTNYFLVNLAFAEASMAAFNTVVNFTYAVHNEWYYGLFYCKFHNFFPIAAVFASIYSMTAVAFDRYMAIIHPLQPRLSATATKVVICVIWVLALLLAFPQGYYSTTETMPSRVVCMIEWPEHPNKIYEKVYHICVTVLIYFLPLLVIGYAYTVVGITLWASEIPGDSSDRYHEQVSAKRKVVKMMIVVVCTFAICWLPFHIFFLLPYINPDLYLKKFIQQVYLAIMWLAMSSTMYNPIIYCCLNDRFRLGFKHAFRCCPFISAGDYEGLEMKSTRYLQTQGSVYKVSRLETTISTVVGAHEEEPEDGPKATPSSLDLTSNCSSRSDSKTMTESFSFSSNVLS
Experimental: as §1, §2, §3, §4, §5

[3] = test system: BANK-induced bladder contraction; assay: BANK-induced bladder contraction in anesthetized guinea pigs; assay type: in vivo, guinea pig; details: for Inhibition of BANK-mediated GP bladder contraction (% Inhibition mediated by 52 nM/kg administered orally): anesthetized female guinea pigs, 52 nM/kg orally by gavage 1 hr before BANK 3 nmol/kg iv, mean ± S.E.M.
Experimental: BANK-Induced Bladder Contraction in Anesthetized Guinea Pigs:
Female guinea pigs (300-450 g) were anesthetized by intramuscular administration of ketamine/xylazine mixture (3/10 mg/kg, respectively). The jugular vein was catheterized and the distal end of the catheter connected to a syringe for administration of compound where appropriate. Subsequently, the bladder was exposed through a midline abdominal incision, the ureters tied with 4-0 silk suture approximately 2 cm above the bladder, and cut above the ligature to allow drainage from the kidneys. Cannula were passed through the proximal urethra and bladder sphincter into the bladder lumen. The bladder was manually emptied, infused with 0.3 mL saline, and the catheter attached to a Gould p23 ID pressure transducer for recording changes in bladder pressure. An equilibration period of approximately 15 min was allowed for stabilization of the animals following surgical preparation. Thiorphan (10 mg/kg iv) was administered 15 minutes before agonist exposure to inhibit neutral endopeptidase 3.4.24.11.
The response was allowed to decay during a 15 min equilibration period before intravenous administration of test compound ([…], 5% PEG 400-saline vehicle). An additional 15 min equilibration period elapsed before administration of an equivalent dose of BANK was repeated. Preliminary studies were performed to establish equivalence of bladder contractile responses to multiple administrations of BANK. Effects were calculated as the percentage difference between the response to BANK in the presence and absence of test compounds.
To establish the oral effect of test compounds, animals were administered the test compounds (52 nmol/kg, 5% PEG 400-saline vehicle) by gavage 1 hr before administration of BANK. This was followed by intravenous administration of BANK (3 nmol/kg). Bladder contraction occurring in the presence or absence of test compound was recorded as an increase in intravesical bladder pressure on a Grass 7D Polygraph and expressed as percent inhibition of the BANK-mediated effect. Duration of action studies were performed following oral administration of test compounds ([…], 5% PEG 400-saline vehicle) at different times prior to administration of BANK. Responses were calculated as the percentage difference between the response to BANK in the presence of test compound compared with sham-treated controls. For all studies, each animal was administered a single dose of test compound. Experimental results were expressed as the mean plus or minus the Standard Error of the Mean (±S.E.M) percentage change from basal level.
The ability of compounds disclosed herein to inhibit bladder contractions induced with BANK is shown by the results disclosed in Table 1.

Row | Structure (SMILES) | Ki [1] [nM] | Ki [2] [nM] | hNK2 (Ki expressed as -Log Molar) [1] | hNK1 (Ki expressed as -Log Molar) [2] | Inhibition of BANK-mediated GP bladder contraction (% Inhibition mediated by 52 nM/kg administered orally) [3] | increase in the bladder contraction induced by BANK ([3]; guinea pig, as shown in Table 1 (52 nM/kg orally)) [%] | inhibition at 10 µM ([2]; 10 μM) [%]
1 | CN(C[C@@H](CCN1CCC(N2CCCCC2=O)CC1)c1ccc(Cl)c(Cl)c1)C(=O)c1ccccc1F [Example 1, (S)—N-[2-(3,4-Dichloro-phenyl)-4-(2-oxo-[1,4′]bipiperidinyl-1′-yl)-butyl]-2-fluoro-N-methyl-benzamide] | 1.45 | 91.2 |  |  | 80% and 80 ± 6% |  | 
2 | CN(C[C@@H](CCN1CCC(N2CCCCC2=O)CC1)c1ccc(Cl)c(Cl)c1)C(=O)c1ccc(F)cc1 [Example 4, (S)—N-[2-(3,4-Dichlorophenyl)-4-[4-(2-oxo-piperidin-1-yl)piperidino]butyl]-N-methyl-4-fluorobenzamide] |  |  |  |  | −28 ± 45% | 28 | 
3 | CCNC(=O)C1(N2CCCCC2=O)CCN(CC[C@H](CN(C)C(=O)c2ccccc2)c2ccc(Cl)c(Cl)c2)CC1 [Example 6] | 0.2 |  |  |  | −65 ± 58% |  | 84

More lines, main results first:

Row | Ki [1] [nM] | Ki [2] [nM] | hNK2 (Ki expressed as -Log Molar) [1] | hNK1 (Ki expressed as -Log Molar) [2] | Structure (SMILES) | Inhibition of BANK-mediated GP bladder contraction (% Inhibition mediated by 52 nM/kg administered orally) [3] | increase in the bladder contraction induced by BANK ([3]; guinea pig, as shown in Table 1 (52 nM/kg orally)) [%] | inhibition at 10 µM ([2]; 10 μM) [%]
4 |  |  | 8.73 -Log Molar | 7.22 -Log Molar | CN(C[C@@H](CCN1CCC(N2CCCCC2=S)CC1)c1ccc(Cl)c(Cl)c1)C(=O)c1ccccc1 [Example 2, (S)—N-[2-(3,4-Dichlorophenyl)-4-[4-(2-thio-piperidin-1-yl)piperidino]butyl]-N-methylbenzamide] | 42 ± 13% |  | 
5 | 3.31 | 427 |  |  | CN(C[C@@H](CCN1CCC(N2CCCCC2=O)CC1)c1ccc(Cl)c(Cl)c1)C(=O)c1ccccc1 [Example 5, (S)—N-[2-(3,4-Dichlorophenyl)-4-[4-(2-oxo-piperidin-1-yl)piperidino]butyl]-N-methylbenzamide] |  |  | 
